Experimental data reported in patent US8334382B2, “Substituted biaryl piperazinyl-pyridine analogues” (Neurogen Corporation, priority 2004, dated 2012).

Target: T1, human capsaicin receptor (Homo sapiens, UniProt Q8NER1)
T1 construct: expressed in transfected cells; host or cells: HEK293, stably transfected with pBK-CMV construct
Experiment: Calcium mobilization assay, determination of antagonist activity
Assay type: cell-based
Details: capsaicin at EC50; cells expressing human capsaicin receptor; Example 6
Method in brief: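 HEK293 cells stably expressing full-length human TRPV1, loaded with Fluo-3 AM in KRH buffer pH 7.4, preincubated with compound (final 1-5 µM) in the dark at room temperature for 0.5-6 h, then stimulated with capsaicin at its EC50. FLIPR fluorescence gave IC50 as concentration halving the capsaicin response.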

T1 sequence (Q8NER1 whole entry): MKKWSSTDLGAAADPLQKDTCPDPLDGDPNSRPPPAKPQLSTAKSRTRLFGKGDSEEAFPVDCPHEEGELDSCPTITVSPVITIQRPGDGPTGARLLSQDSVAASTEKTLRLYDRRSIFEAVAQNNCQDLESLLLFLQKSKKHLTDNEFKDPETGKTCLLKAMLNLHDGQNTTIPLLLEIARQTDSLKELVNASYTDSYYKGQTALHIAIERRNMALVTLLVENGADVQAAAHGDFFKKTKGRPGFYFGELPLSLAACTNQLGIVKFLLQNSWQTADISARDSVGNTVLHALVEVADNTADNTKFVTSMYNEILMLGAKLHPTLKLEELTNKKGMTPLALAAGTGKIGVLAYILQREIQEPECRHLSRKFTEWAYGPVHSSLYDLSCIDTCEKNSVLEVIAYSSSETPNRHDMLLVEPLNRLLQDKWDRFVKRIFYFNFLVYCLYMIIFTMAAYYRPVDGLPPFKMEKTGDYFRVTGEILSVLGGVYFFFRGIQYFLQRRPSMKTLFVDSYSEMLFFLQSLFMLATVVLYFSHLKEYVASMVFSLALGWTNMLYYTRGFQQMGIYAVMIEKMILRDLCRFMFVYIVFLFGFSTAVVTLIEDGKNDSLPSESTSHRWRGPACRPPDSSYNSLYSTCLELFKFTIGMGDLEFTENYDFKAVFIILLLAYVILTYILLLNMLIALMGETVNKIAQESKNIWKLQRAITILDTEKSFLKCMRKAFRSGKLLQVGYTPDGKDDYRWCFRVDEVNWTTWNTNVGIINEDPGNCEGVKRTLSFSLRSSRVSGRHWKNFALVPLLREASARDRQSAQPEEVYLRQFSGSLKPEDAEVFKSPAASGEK

IC50, ≤ 1000 nM:
Cc1cc(C(=O)NCc2cccs2)cnc1N1CCN(c2cc(-c3ccc(F)cc3)nc(N3CCCC3C)n2)CC1 (stereo not drawn) [Example 118, 6-{4-[6-(4-fluorophenyl)-2-(2-methylpyrrolidin-1-yl)pyrimidin-4-yl]piperazin-1-yl}-5-methyl-N-(2-thienylmethyl) nicotinamide]
CCOCCNC(=O)c1cnc(N2CCN(c3cc(-c4ccc(F)cc4)nc(N4CCCC4C)n3)CC2)c(C)c1 (stereo not drawn) [Example 119, N-(2-ethoxyethyl)-6-{4-[6-(4-fluorophenyl)-2-(2-methylpyrrolidin-1-yl)pyrimidin-4-yl]piperazin-1-yl}-5-methylnicotinamide]
Cc1cc(C(=O)NCC(F)(F)F)cnc1N1CCN(c2cc(-c3ccc(F)cc3)nc(N3CCCC3C)n2)CC1 (stereo not drawn) [Example 120, 6-{4-[6-(4-fluorophenyl)-2-(2-methylpyrrolidin-1-yl)pyrimidin-4-yl]piperazin-1-yl}-5-methyl-N-(2,2,2-trifluoroethyl)nicotinamide]
Cc1cc(C(=O)N(C)Cc2ccccc2)cnc1N1CCN(c2cc(-c3ccc(F)cc3)nc(N3CCCC3C)n2)CC1 (stereo not drawn) [Example 121, N-benzyl-6-{4-[6-(4-fluorophenyl)-2-(2-methylpyrrolidin-1-yl)pyrimidin-4-yl]piperazin-1-yl}-N,5-dimethylnicotinamide]
Cc1cc(C(=O)N2CCCC2)cnc1N1CCN(c2cc(-c3ccc(F)cc3)nc(N3CCCC3C)n2)CC1 (stereo not drawn) [Example 122, 4-(4-fluorophenyl)-2-(2-methylpyrrolidin-1-yl)-6-{4-[3-methyl-5-(pyrrolidin-1-ylcarbonyl)pyridin-2-yl]piperazin-1-yl}pyrimidine]
Cc1cc(C(=O)N2CCCCC2)cnc1N1CCN(c2cc(-c3ccc(F)cc3)nc(N3CCCC3C)n2)CC1 (stereo not drawn) [Example 123, 4-(4-fluorophenyl)-6-{4-[3-methyl-5-(piperidin-1-ylcarbonyl)pyridin-2-yl]piperazin-1-yl}-2-(2-methylpyrrolidin-1-yl)pyrimidine]
Cc1cc(C(=O)N2CCOCC2)cnc1N1CCN(c2cc(-c3ccc(F)cc3)nc(N3CCCC3C)n2)CC1 (stereo not drawn) [Example 124, 4-[(6-{4-[6-(4-fluorophenyl)-2-(2-methylpyrrolidin-1-yl)pyrimidin-4-yl]piperazin-1-yl}-5-methylpyridin-3-yl)carbonyl]morpholine]
Cc1cc(C(=O)N2CCC(C)CC2)cnc1N1CCN(c2cc(-c3ccc(F)cc3)nc(N3CCCC3C)n2)CC1 (stereo not drawn) [Example 125, 4-(4-fluorophenyl)-6-(4-{3-methyl-5-[(4-methylpiperidin-1-yl)carbonyl]pyridin-2-yl}piperazin-1-yl)-2-(2-methylpyrrolidin-1-yl)pyrimidine]
Cc1cc(C(=O)N2CCCCCC2)cnc1N1CCN(c2cc(-c3ccc(F)cc3)nc(N3CCCC3C)n2)CC1 (stereo not drawn) [Example 126, l-[(6-{4-[6-(4-fluorophenyl)-2-(2-methylpyrrolidin-1-yl)pyrimidin-4-yl]piperazin-1-yl}-5-methylpyridin-3-yl)carbonyl]azepane]
Cc1cc(C(=O)N2CCSCC2)cnc1N1CCN(c2cc(-c3ccc(F)cc3)nc(N3CCCC3C)n2)CC1 (stereo not drawn) [Example 127, 4-[(6-{4-[6-(4-fluorophenyl)-2-(2-methylpyrrolidin-1-yl)pyrimidin-4-yl]piperazin-1-yl}-5-methylpyridin-3-yl)carbonyl] thiomorpholine]
Cc1cc(C(=O)N2CCCCC2C)cnc1N1CCN(c2cc(-c3ccc(F)cc3)nc(N3CCCC3C)n2)CC1 (stereo not drawn) [Example 128, 4-(4-fluorophenyl)-6-(4-{3-methyl-5-[(2-methylpiperidin-1-yl)carbonyl]pyridin-2-yl}piperazin-1-yl)-2-(2-methylpyrrolidin-1-yl)pyrimidine]
Cc1cc(C(=O)N(C)C2CCCCC2)cnc1N1CCN(c2cc(-c3ccc(F)cc3)nc(N3CCCC3C)n2)CC1 (stereo not drawn) [Example 129, N-cyclohexyl-6-{4-[6-(4-fluorophenyl)-2-(2-methylpyrrolidin-1-yl)pyrimidin-4-yl]piperazin-1-yl}-N,5-dimethylnicotinamide]
Cc1cc(C(=O)N2CCC(c3ccccc3)CC2)cnc1N1CCN(c2cc(-c3ccc(F)cc3)nc(N3CCCC3C)n2)CC1 (stereo not drawn) [Example 130, 4-(4-fluorophenyl)-6-(4-{3-methyl-5-[(4-phenylpiperidin-1-yl)carbonyl]pyridin-2-yl}piperazin-1-yl)-2-(2-methylpyrrolidin-1-yl)pyrimidine]
Cc1cc(C(=O)N2CCN(C)CC2)cnc1N1CCN(c2cc(-c3ccc(F)cc3)nc(N3CCCC3C)n2)CC1 (stereo not drawn) [Example 131, 4-(4-fluorophenyl)-6-(4-{3-methyl-5-[(4-methylpiperazin-1-yl)carbonyl]pyridin-2-yl}piperazin-1-yl)-2-(2-methylpyrrolidin-1-yl)pyrimidine]
COCCN1CCN(C(=O)c2cnc(N3CCN(c4cc(-c5ccc(F)cc5)nc(N5CCCC5C)n4)CC3)c(C)c2)CC1 (stereo not drawn) [Example 132, 4-(4-fluorophenyl)-6-[4-(5-{[4-(2-methoxyethyl)piperazin-1-yl]carbonyl}-3-methylpyridin-2-yl)piperazin-1-yl]-2-(2-methylpyrrolidin-1-yl)pyrimidine]
Cc1cc(C(=O)N2CCN(C3CCCC3)CC2)cnc1N1CCN(c2cc(-c3ccc(F)cc3)nc(N3CCCC3C)n2)CC1 (stereo not drawn) [Example 133, 4-(4-{5-[(4-cyclopentylpiperazin-1-yl)carbonyl]-3-methylpyridin-2-yl}piperazin-1-yl)-6-(4-fluorophenyl)-2-(2-methylpyrrolidin-1-yl)pyrimidine]
CC(=O)N1CCN(C(=O)c2cnc(N3CCN(c4cc(-c5ccc(F)cc5)nc(N5CCCC5C)n4)CC3)c(C)c2)CC1 (stereo not drawn) [Example 134, 4-(4-{5-[(4-acetylpiperazin-1-yl)carbonyl]-3-methylpyridin-2-yl}piperazin-1-yl)-6-(4-fluorophenyl)-2-(2-methylpyrrolidin-1-yl)pyrimidine]
Cc1cc(C(=O)N2CCCC2C)cnc1N1CCN(c2cc(-c3ccc(F)cc3)nc(N3CCCC3C)n2)CC1 (stereo not drawn) [Example 135, 4-(4-fluorophenyl)-6-(4-{3-methyl-5-[(2-methylpyrrolidin-1-yl)carbonyl]pyridin-2-yl}piperazin-1-yl)-2-(2-methylpyrrolidin-1-yl)pyrimidine]
Cc1cc(C(=O)N(C)CCN(C)C)cnc1N1CCN(c2cc(-c3ccc(F)cc3)nc(N3CCCC3C)n2)CC1 (stereo not drawn) [Example 136, N-[2-(dimethylamino)ethyl]-6-{4-[6-(4-fluorophenyl)-2-(2-methylpyrrolidin-1-yl)pyrimidin-4-yl]piperazin-1-yl}-N,5-dimethylnicotinamide]
Cc1cc(C(=O)N(C)CCCN(C)C)cnc1N1CCN(c2cc(-c3ccc(F)cc3)nc(N3CCCC3C)n2)CC1 (stereo not drawn) [Example 137, N-[3-(dimethylamino)propyl]-6-{4-[6-(4-fluorophenyl)-2-(2-methylpyrrolidin-1-yl)pyrimidin-4-yl]piperazin-1-yl}-N,5-dimethylnicotinamide]
Cc1cc(C(=O)N(C)C2CCN(C)C2)cnc1N1CCN(c2cc(-c3ccc(F)cc3)nc(N3CCCC3C)n2)CC1 (stereo not drawn) [Example 138, 6-{4-[6-(4-fluorophenyl)-2-(2-methylpyrrolidin-1-yl)pyrimidin-4-yl]piperazin-1-yl}-N,5-dimethyl-N-(1-methylpyrrolidin-3-yl)nicotinamide]
Cc1cc(C(=O)N2CCC(N(C)C)C2)cnc1N1CCN(c2cc(-c3ccc(F)cc3)nc(N3CCCC3C)n2)CC1 (stereo not drawn) [Example 139, l-[(6-{4-[6-(4-fluorophenyl)-2-(2-methylpyrrolidin-1-yl)pyrimidin-4-yl]piperazin-1-yl}-5-methylpyridin-3-yl)carbonyl]-N,N-dimethylpyrrolidin-3 amine]
CC(=O)NC1CCN(C(=O)c2cnc(N3CCN(c4cc(-c5ccc(F)cc5)nc(N5CCCC5C)n4)CC3)c(C)c2)C1 (stereo not drawn) [Example 140, N-{l-[(6-{4-[6-(4-fluorophenyl)-2-(2-methylpyrrolidin-1-yl)pyrimidin-4-yl]piperazin-1-yl}-5-methylpyridin-3-yl)carbonyl]pyrrolidin-3-yl}acetamide]
COC1CCN(C(=O)c2cnc(N3CCN(c4cc(-c5ccc(F)cc5)nc(N5CCCC5C)n4)CC3)c(C)c2)CC1 (stereo not drawn) [Example 141, 4-(4-fluorophenyl)-6-(4-{5-[(4-methoxypiperidin-1-yl)carbonyl]-3-methylpyridin-2-yl}piperazin-1-yl)-2-(2-methylpyrrolidin-1-yl)pyrimidine]
Cc1cc(C(=O)N2CCC(F)(F)CC2)cnc1N1CCN(c2cc(-c3ccc(F)cc3)nc(N3CCCC3C)n2)CC1 (stereo not drawn) [Example 142, 4-(4-{5-[(4,4-difluoropiperidin-1-yl)carbonyl]-3-methylpyridin-2-yl}piperazin-1-yl)-6-(4-fluorophenyl)-2-(2-methylpyrrolidin-1-yl)pyrimidine]
C[C@@H]1CN(c2ncc(C(N)=O)cc2Cl)CCN1c1cc(-c2ccc(F)cc2)nc(N2CCOC[C@H]2C)n1 [Example 143, 5-Chloro-6-{4-[6-(4-fluoro-phenyl)-2-(3-(R)-methyl-morpholin-4-yl)-pyrimidin-4-yl]-3-(R)-methyl-piperazin-1-yl}-nicotinamide]
Cc1ccc(C(=O)O)nc1N1CCN(c2cc(-c3ccc(F)cc3)nc(N3CCC[C@H]3C)n2)[C@H](C)C1 [Example 144, 6-{4-[6-(4-Fluoro-phenyl)-2-(2-(R)-methyl-pyrrolidin-l-yl)-pyrimidin-4-yl]-3-(R)-methyl-piperazin-1-yl}-5-methyl-pyridine-2-carboxylic acid]
